Assay results taken from ChEMBL document CHEMBL1149595, “Novel isomarabarican triterpenes, exhibiting selective anti-proliferative activity against vascular endothelial cells, from marine sponge Rhabdastrella globostellata” (Bioorg Med Chem, 2007).
One block for each compound: values may come before it. The source made the active and inactive calls. The rule behind the calls is not given here.

What was measured:
[1] = test system: K562; test: Selectivity index, ratio of IC50 for K562 cells to IC50 for HUVEC cells; format: functional, Homo sapiens
[2] = test system: HUVEC; test: Selectivity index, ratio of IC50 for Neuro2A cells to IC50 for HUVEC cells; format: functional, Homo sapiens
[3] = test system: HUVEC; test: Growth inhibition of HUVEC cells after 72 hrs; format: functional, cell-based; settings: Homo sapiens
[4] = Growth inhibition of KB3-1 cells after 72 hrs; format: functional, cell-based; settings: Homo sapiens, KB 3-1, 72 h
[5] = test system: K562; test: Growth inhibition of K562 cells after 72 hrs; format: functional, cell-based; settings: Homo sapiens, K562, 72 h
[6] = Growth inhibition of Neuro2A cells after 72 hrs; format: functional, cell-based; settings: N2a
[7] = test system: HUVEC; test: Selectivity index, ratio of IC50 for KB3-1 cells to IC50 for HUVEC cells; format: functional, Homo sapiens
[8] = test system: HUVEC; test: Inhibition of VEGF-induced cell migration in HUVEC at 0.3 uM after 12 hrs; format: functional, cell-based; settings: Homo sapiens
[9] = test system: HUVEC; test: Inhibition of VEGF-induced cell migration in HUVEC at 1.0 uM after 12 hrs; format: functional, cell-based; settings: Homo sapiens
[10] = Growth inhibition of HUVEC at 1 uM; format: cell-based; settings: human, HUVEC cells
[11] = Growth inhibition of HUVEC at 10 uM; format: cell-based; settings: human, HUVEC cells
[12] = target: Mitogen-activated protein kinase 3 (Homo sapiens) (UniProt P27361); test: Inhibition of VEGF-induced ERK1 phosphorylation in HUVEC cells after 6 hrs by immunoblotting; format: cell-based
[13] = target: Mitogen-activated protein kinase 1 (Homo sapiens) (UniProt P28482); test: Inhibition of VEGF-induced ERK2 phosphorylation in HUVEC cells after 6 hrs by immunoblotting; format: cell-based
[14] = test system: HUVEC; test: Induction of apoptosis assessed as activation of caspase 3 in HUVEC cells at 1 uM after 48 hrs; format: functional, Homo sapiens
[15] = test system: HUVEC; test: Induction of apoptosis assessed as activation of caspase 3 in HUVEC cells at 10 uM after 48 hrs; format: functional, Homo sapiens
[16] = test system: HUVEC; test: Induction of apoptosis assessed as activation of caspase 7 in HUVEC cells at 1 uM after 48 hrs; format: functional, Homo sapiens
[17] = test system: HUVEC; test: Induction of apoptosis assessed as activation of caspase 7 in HUVEC cells at 10 uM after 48 hrs; format: functional, Homo sapiens
[18] = test system: HUVEC; test: Induction of apoptosis assessed as activation of caspase 3 in HUVEC cells at 1 uM after 60 hrs; format: functional, Homo sapiens
[19] = test system: HUVEC; test: Induction of apoptosis assessed as activation of caspase 3 in HUVEC cells at 10 uM after 60 hrs; format: functional, Homo sapiens
[20] = test system: HUVEC; test: Induction of apoptosis assessed as activation of caspase 7 in HUVEC cells at 1 uM after 60 hrs; format: functional, Homo sapiens
[21] = test system: HUVEC; test: Induction of apoptosis assessed as activation of caspase 7 in HUVEC cells at 10 uM after 60 hrs; format: functional, Homo sapiens
[22] = test system: KB 3-1; test: Induction of apoptosis assessed as activation of caspase 3 in KB3-1 cells at 10 uM; format: functional, cell-based; settings: Homo sapiens
[23] = test system: KB 3-1; test: Induction of apoptosis assessed as activation of caspase 7 in KB3-1 cells at 10 uM; format: functional, cell-based; settings: Homo sapiens

Chain of Mitogen-activated protein kinase 3 (Homo sapiens) (P27361 whole entry): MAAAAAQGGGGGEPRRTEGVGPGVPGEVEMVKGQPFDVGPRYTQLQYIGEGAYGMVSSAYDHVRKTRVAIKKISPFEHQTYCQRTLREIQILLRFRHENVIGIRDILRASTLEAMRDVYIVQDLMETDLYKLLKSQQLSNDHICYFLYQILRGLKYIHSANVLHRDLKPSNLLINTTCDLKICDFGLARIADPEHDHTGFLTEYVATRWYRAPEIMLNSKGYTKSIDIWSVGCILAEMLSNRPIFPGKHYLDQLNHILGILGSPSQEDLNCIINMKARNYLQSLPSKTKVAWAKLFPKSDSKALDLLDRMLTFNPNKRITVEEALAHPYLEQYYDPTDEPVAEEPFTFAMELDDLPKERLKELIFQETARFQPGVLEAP
Chain of Mitogen-activated protein kinase 1 (Homo sapiens) (P28482 whole entry): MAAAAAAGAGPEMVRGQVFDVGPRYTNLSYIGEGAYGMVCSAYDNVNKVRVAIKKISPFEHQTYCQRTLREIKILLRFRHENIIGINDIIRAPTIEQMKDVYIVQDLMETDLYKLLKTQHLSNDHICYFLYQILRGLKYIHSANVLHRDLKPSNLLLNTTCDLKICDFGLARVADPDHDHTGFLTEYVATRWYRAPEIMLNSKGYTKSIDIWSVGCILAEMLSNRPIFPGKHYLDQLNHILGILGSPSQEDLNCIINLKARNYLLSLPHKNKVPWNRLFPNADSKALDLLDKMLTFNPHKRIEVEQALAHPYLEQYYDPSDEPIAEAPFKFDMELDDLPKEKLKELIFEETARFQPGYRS

Compound: COC(=O)[C@]1(C)[C@@H]2CC[C@]3(C)\C(=C(C)/C=C/C=C(C)/C=C/C(O)C(C)(C)O)C(=O)C[C@H]3[C@@]2(C)CC[C@H]1OC(C)=O (stereo partly specified) [GLOBOSTELLATIC ACID F METHYL ESTER]
Ratio IC50 [1]: 12
Ratio IC50 [2]: 5
IC50 [3]: 0.98 µM
IC50 [4]: 8.6 µM
IC50 [5]: 12 µM
IC50 [6]: 5 µM
Ratio IC50 [7]: 9

Compound: COC(=O)[C@]1(C)[C@@H]2CC[C@]3(C)C(C(C)CCCC(C)CCCC(C)C)C(=O)C[C@H]3[C@@]2(C)CC[C@H]1OC(C)=O (stereo partly specified)
IC50 [3]: > 100 µM
IC50 [4]: > 100 µM
IC50 [5]: 53 µM
IC50 [6]: 80 µM

Compound: COC(=O)[C@]1(C)[C@@H]2CC[C@]3(C)\C(=C(C)/C=C/C=C(\C)C(/C=C/C(C)(C)O)OC)C(=O)C[C@H]3[C@@]2(C)CC[C@H]1OC(C)=O (stereo partly specified)
Ratio IC50 [1]: 9
Ratio IC50 [2]: 6
IC50 [3]: 1.1 µM
IC50 [4]: 6.5 µM
IC50 [5]: 9.3 µM
IC50 [6]: 6 µM
Ratio IC50 [7]: 6

Compound: CC(=O)O[C@@H]1CC[C@@]2(C)[C@@H](CC[C@]3(C)/C(=C(C)/C=C/C=O)C(=O)C[C@@H]23)[C@@]1(C)C(=O)O [ACETYLJASPIFERAL E]
Ratio IC50 [1]: 15
Ratio IC50 [2]: 14
IC50 [3]: 2.2 µM
IC50 [4]: 28 µM
IC50 [5]: 32 µM
IC50 [6]: 34 µM
Ratio IC50 [7]: 13

Compound: COC(=O)[C@]1(C)[C@@H]2CC[C@]3(C)\C(=C(C)/C=C/C=C(C)\C=C\C=C(C)C)C(=O)C[C@H]3[C@@]2(C)CC[C@H]1OC(C)=O
Ratio IC50 [1]: 360
Ratio IC50 [2]: 75
IC50 [3]: 0.06 µM
IC50 [4]: 18 µM
IC50 [5]: 22 µM
IC50 [6]: 4.7 µM
Ratio IC50 [7]: 200

Compound: COC(=O)[C@]1(C)[C@@H]2CC[C@]3(C)/C(=C(C)/C=C/C=C(C)\C=C\C=C(C)C)C(=O)C[C@H]3[C@@]2(C)CC[C@H]1OC(C)=O
Ratio IC50 [1]: 55
Ratio IC50 [2]: 19
IC50 [3]: 0.4 µM
IC50 [4]: 9.8 µM
IC50 [5]: 22 µM
IC50 [6]: 7.9 µM
Ratio IC50 [7]: 25

Compound: COC(=O)[C@]1(C)[C@@H]2CC[C@]3(C)\C(=C(C)/C=C/C=C(C)/C=C/C=C(C)C)C(=O)C[C@H]3[C@@]2(C)CC[C@H]1OC(C)=O
Ratio IC50 [1]: 256
Ratio IC50 [2]: 83
Activity [8]: Active
Activity [9]: Active
inhibition at 1 µM [10]: > 90%
inhibition at 10 µM [11]: > 90%
Activity [12]: inactive
Activity [13]: inactive
Fold change [14]: 5
IC50 [4]: 14 µM
IC50 [5]: 23 µM
IC50 [6]: 7.5 µM
Fold change [15]: 5
Fold change [16]: 17
Fold change [17]: 17
Fold change [18]: 13
Fold change [19]: 13
Fold change [20]: 45
Fold change [21]: 45
Activity [22]: inactive
Activity [23]: inactive

Stronger by IC50 [5], values ahead:

IC50 [5]: 5.2 µM
Compound: COC(=O)[C@@]1(C)[C@H](O)CC[C@@]2(C)[C@H]1CC[C@]1(C)\C(=C(C)/C=C/C=C(C)/C=C/C=C(C)C)C(=O)C[C@@H]21
Ratio IC50 [1]: 27
Ratio IC50 [2]: 31
IC50 [3]: 0.19 µM
IC50 [4]: 4.9 µM
IC50 [6]: 5.9 µM
Ratio IC50 [7]: 25

IC50 [5]: 7.8 µM
Compound: COC(=O)[C@]1(C)[C@@H]2CC[C@]3(C)\C(=C(C)/C=C/C=C(C)/C=C/C=O)C(=O)C[C@H]3[C@@]2(C)CC[C@H]1OC(C)=O [ACETYLJASPIFERAL B METHYL ESTER]
Ratio IC50 [1]: 10
Ratio IC50 [2]: 28
IC50 [3]: 0.78 µM
IC50 [4]: 16 µM
IC50 [6]: 22 µM
Ratio IC50 [7]: 20

IC50 [5]: 9 µM
Compound: COC(=O)[C@]1(C)[C@@H]2CC[C@]3(C)/C(=C(C)/C=C/C=C(C)/C=C/C=C(C)C)C(=O)C[C@H]3[C@@]2(C)CC[C@H]1OC(C)=O
Ratio IC50 [1]: 141
Ratio IC50 [2]: 50
IC50 [3]: 0.064 µM
IC50 [4]: 3.1 µM
IC50 [6]: 3.2 µM
Ratio IC50 [7]: 48
